In ChEMBL document CHEMBL1127880, “1H-1,2,4-triazole angiotensin II receptor antagonists: N-phenylpyridinylmethyl and N-pyridinylphenylmethyl analogs of SC-50560” (Bioorg Med Chem Lett, 1994):

Experiments:
Angiotensin II receptor = biological target: T1, Angiotensin II receptor (Rattus norvegicus, UniProt P29089+P25095+P35351); assay: Tested in vitro for inhibition of [125I]AII to rat uterine membranes; assay type: cell membranes, Membrane
T1 sequence (P29089 whole entry): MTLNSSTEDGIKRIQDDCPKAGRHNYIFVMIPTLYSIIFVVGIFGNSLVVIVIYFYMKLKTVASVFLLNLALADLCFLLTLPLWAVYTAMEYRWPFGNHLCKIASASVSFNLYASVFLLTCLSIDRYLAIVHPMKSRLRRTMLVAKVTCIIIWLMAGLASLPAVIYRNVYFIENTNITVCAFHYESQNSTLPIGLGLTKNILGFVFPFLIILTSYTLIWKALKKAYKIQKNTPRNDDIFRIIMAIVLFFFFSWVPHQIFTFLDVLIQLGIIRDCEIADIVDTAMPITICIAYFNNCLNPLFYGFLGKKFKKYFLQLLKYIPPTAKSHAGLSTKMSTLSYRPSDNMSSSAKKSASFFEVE
T1 sequence (P25095 whole entry): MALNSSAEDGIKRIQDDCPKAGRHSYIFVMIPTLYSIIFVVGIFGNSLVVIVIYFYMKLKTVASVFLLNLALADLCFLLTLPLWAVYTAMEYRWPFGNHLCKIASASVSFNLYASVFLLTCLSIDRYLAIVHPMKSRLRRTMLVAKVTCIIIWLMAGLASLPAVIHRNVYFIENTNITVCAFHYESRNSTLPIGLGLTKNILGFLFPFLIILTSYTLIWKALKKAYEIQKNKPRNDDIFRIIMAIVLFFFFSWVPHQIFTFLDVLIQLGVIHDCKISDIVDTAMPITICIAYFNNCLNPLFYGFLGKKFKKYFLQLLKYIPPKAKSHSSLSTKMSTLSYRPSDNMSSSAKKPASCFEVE
T1 sequence (P35351 whole entry): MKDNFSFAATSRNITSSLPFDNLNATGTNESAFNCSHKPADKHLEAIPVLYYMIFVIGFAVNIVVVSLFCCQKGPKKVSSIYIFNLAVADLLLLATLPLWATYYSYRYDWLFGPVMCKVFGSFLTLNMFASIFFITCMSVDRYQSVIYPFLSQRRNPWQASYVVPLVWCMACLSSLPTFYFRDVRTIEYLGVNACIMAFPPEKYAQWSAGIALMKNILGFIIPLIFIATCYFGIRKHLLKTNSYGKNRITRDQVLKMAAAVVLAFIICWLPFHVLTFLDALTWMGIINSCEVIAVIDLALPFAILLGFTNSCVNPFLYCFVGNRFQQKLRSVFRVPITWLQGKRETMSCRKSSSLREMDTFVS

Oryctolagus cuniculus = organism: Oryctolagus cuniculus; assay: Evaluated for antagonism of AII contracted rabbit aortic rings; assay type: functional; conditions: Aorta, read-out: pA2 (converted)

Question: Which IC50 (Angiotensin II receptor) does the source give for `CCCCc1nc(CCCC)n(Cc2ccc(-c3ccncc3-c3nn[nH]n3)cc2)n1` here?
Answer: 0.25 µM

Question: How did the Kb (Oryctolagus cuniculus) turn out when `CCCCc1nc(CCCC)n(Cc2ccc(-c3ccccc3-c3nn[nH]n3)cn2)n1` was run?
Answer: 0.01 µM

Question: For `CCCCc1nc(CCCC)n(Cc2ccc(-c3ncccc3-c3nn[nH]n3)cc2)n1`, which Kb (Oryctolagus cuniculus) is on record?
Answer: 0.158 µM

Question: What about the IC50 (Angiotensin II receptor) of the same compound?
Answer: 0.098 µM

Question: `CCCCc1nc(CCCC)n(Cc2ccc(-c3cnccc3-c3nn[nH]n3)cc2)n1` was tested. Which Kb (Oryctolagus cuniculus) did it give?
Answer: 0.0631 µM

Question: And the IC50 (Angiotensin II receptor)?
Answer: 0.15 µM

Question: Which Kb (Oryctolagus cuniculus) does the source give for `CCCCc1nc(CCCC)n(Cc2ccc(-c3cccnc3-c3nn[nH]n3)cc2)n1` here?
Answer: 0.126 µM

Question: And the IC50 (Angiotensin II receptor)?
Answer: 0.11 µM
